Assay: mn = molality of the nth substance listed, in mol/kg
Settings: for surface tension liquid-gas: Maximal bubble pressure; for mass density: 100 kPa, Liquid, Vibrating tube method

CC(=O)[O-].CCCCC[n+]1ccn(C)c1 [1-methyl-3-pentylimidazolium acetate] + O
Settings	mass density [kg/m3]	surface tension liquid-gas [mN/m]
288.15 K, m1 = 0.0113	1000.14	73.1
288.15 K, m1 = 0.0167	1000.28	73
288.15 K, m1 = 0.0278	1000.42	72.7
288.15 K, m1 = 0.0448	1000.64	72.2
288.15 K, m1 = 0.1117	1001.58	70.7
288.15 K, m1 = 0.1681	1002.3	69.3
288.15 K, m1 = 0.2233	1002.98	68
288.15 K, m1 = 0.2831	1003.85	66.7
288.15 K, m1 = 0.3358	1004.57	65.4
288.15 K, m1 = 0.3919	1005.36	64.1
288.15 K, m1 = 0.448	1006.14	62.9
288.15 K, m1 = 0.5032	1006.89	61.9
293.15 K, m1 = 0.0113	999.1	72.4
293.15 K, m1 = 0.0167	999.21	72.3
293.15 K, m1 = 0.0278	999.36	71.9
293.15 K, m1 = 0.0448	999.54	71.4
293.15 K, m1 = 0.1117	1000.47	69.9
293.15 K, m1 = 0.1681	1001.12	68.5
293.15 K, m1 = 0.2233	1001.89	67.4
293.15 K, m1 = 0.2831	1002.69	66
293.15 K, m1 = 0.3358	1003.38	64.7
293.15 K, m1 = 0.3919	1004.16	63.5
293.15 K, m1 = 0.448	1004.92	62.2
293.15 K, m1 = 0.5032	1005.68	61.2
298.15 K, m1 = 0.0113	997.82	71.6
298.15 K, m1 = 0.0167	997.9	71.4
298.15 K, m1 = 0.0278	998.08	71.1
298.15 K, m1 = 0.0448	998.25	70.7
298.15 K, m1 = 0.1117	999.05	69.3
298.15 K, m1 = 0.1681	999.71	67.9
298.15 K, m1 = 0.2233	1000.49	66.7
298.15 K, m1 = 0.2831	1001.32	65.4
298.15 K, m1 = 0.3358	1002.01	64.1
298.15 K, m1 = 0.3919	1002.76	62.9
298.15 K, m1 = 0.448	1003.5	61.7
298.15 K, m1 = 0.5032	1004.2	60.7
303.15 K, m1 = 0.0113	996.33	70.8
303.15 K, m1 = 0.0167	996.39	70.6
303.15 K, m1 = 0.0278	996.54	70.4
303.15 K, m1 = 0.0448	996.73	69.9
303.15 K, m1 = 0.1117	997.44	68.5
303.15 K, m1 = 0.1681	998.19	67
303.15 K, m1 = 0.2233	998.96	65.9
303.15 K, m1 = 0.2831	999.76	64.6
303.15 K, m1 = 0.3358	1000.44	63.3
303.15 K, m1 = 0.3919	1001.15	62.1
303.15 K, m1 = 0.448	1001.84	60.8
303.15 K, m1 = 0.5032	1002.51	59.8
308.15 K, m1 = 0.0113	994.67	69.9
308.15 K, m1 = 0.0167	994.74	69.8
308.15 K, m1 = 0.0278	994.85	69.5
308.15 K, m1 = 0.0448	995.01	69.1
308.15 K, m1 = 0.1117	995.82	67.6
308.15 K, m1 = 0.1681	996.5	66.2
308.15 K, m1 = 0.2233	997.24	65.1
308.15 K, m1 = 0.2831	998.03	63.9
308.15 K, m1 = 0.3358	998.7	62.7
308.15 K, m1 = 0.3919	999.4	61.4
308.15 K, m1 = 0.448	1000.08	60.2
308.15 K, m1 = 0.5032	1000.73	59.2
313.15 K, m1 = 0.0113	992.81	69.1
313.15 K, m1 = 0.0167	992.88	69
313.15 K, m1 = 0.0278	992.97	68.7
313.15 K, m1 = 0.0448	993.11	68.2
313.15 K, m1 = 0.1117	993.98	66.8
313.15 K, m1 = 0.1681	994.62	65.5
313.15 K, m1 = 0.2233	995.34	64.4
313.15 K, m1 = 0.2831	996.08	63.2
313.15 K, m1 = 0.3358	996.74	61.9
313.15 K, m1 = 0.3919	997.43	60.7
313.15 K, m1 = 0.448	998.1	59.5
313.15 K, m1 = 0.5032	998.74	58.6
318.15 K, m1 = 0.0113	990.79	68.3
318.15 K, m1 = 0.0167	990.87	68.2
318.15 K, m1 = 0.0278	990.95	67.9
318.15 K, m1 = 0.0448	991.1	67.5
318.15 K, m1 = 0.1117	991.99	66.1
318.15 K, m1 = 0.1681	992.61	64.8
318.15 K, m1 = 0.2233	993.28	63.6
318.15 K, m1 = 0.2831	994.03	62.3
318.15 K, m1 = 0.3358	994.67	61.1
318.15 K, m1 = 0.3919	995.33	60
318.15 K, m1 = 0.448	995.97	58.9
318.15 K, m1 = 0.5032	996.58	57.9

O [water] + CC(=O)[O-].CCCn1cc[n+](C)c1
m2 = 0
Settings	mass density [kg/m3]	surface tension liquid-gas [mN/m]
288.15 K	–	73.5
293.15 K	–	72.8
298.15 K	–	72
303.15 K	–	71.2
308.15 K	994.06	70.4
313.15 K	–	69.6
318.15 K	–	68.7

O [water] + CC(=O)[O-].CCCCC[n+]1ccn(C)c1
m2 = 0
Settings	mass density [kg/m3]	surface tension liquid-gas [mN/m]
288.15 K	–	73.5
293.15 K	–	72.8
298.15 K	–	72
303.15 K	–	71.2
308.15 K	994.06	70.4
313.15 K	–	69.6
318.15 K	–	68.7

CC(=O)[O-].CCCn1cc[n+](C)c1 [1-propyl-3-methylimidazolium acetate] + O
Settings	mass density [kg/m3]	surface tension liquid-gas [mN/m]
288.15 K, m1 = 0.0113	1000.22	73.4
288.15 K, m1 = 0.0172	1000.35	73.2
288.15 K, m1 = 0.0279	1000.55	72.8
288.15 K, m1 = 0.0446	1000.78	72.5
288.15 K, m1 = 0.1119	1001.76	71
288.15 K, m1 = 0.1673	1002.56	69.8
288.15 K, m1 = 0.2244	1003.49	68.6
288.15 K, m1 = 0.2808	1004.43	67.4
288.15 K, m1 = 0.3352	1005.37	66.2
288.15 K, m1 = 0.3925	1006.31	65.1
288.15 K, m1 = 0.448	1007.25	64
288.15 K, m1 = 0.5037	1007.98	63
293.15 K, m1 = 0.0113	999.22	72.6
293.15 K, m1 = 0.0172	999.35	72.5
293.15 K, m1 = 0.0279	999.53	72.1
293.15 K, m1 = 0.0446	999.76	71.8
293.15 K, m1 = 0.1119	1000.68	70.5
293.15 K, m1 = 0.1673	1001.46	69
293.15 K, m1 = 0.2244	1002.37	67.8
293.15 K, m1 = 0.2808	1003.28	66.7
293.15 K, m1 = 0.3352	1004.16	65.5
293.15 K, m1 = 0.3925	1005.08	64.4
293.15 K, m1 = 0.448	1005.89	63.3
293.15 K, m1 = 0.5037	1006.64	62.4
298.15 K, m1 = 0.0113	997.99	71.8
298.15 K, m1 = 0.0172	998.1	71.6
298.15 K, m1 = 0.0279	998.25	71.3
298.15 K, m1 = 0.0446	998.46	70.9
298.15 K, m1 = 0.1119	999.35	69.6
298.15 K, m1 = 0.1673	1000.14	68.4
298.15 K, m1 = 0.2244	1001.01	67
298.15 K, m1 = 0.2808	1001.86	66
298.15 K, m1 = 0.3352	1002.67	64.8
298.15 K, m1 = 0.3925	1003.62	63.7
298.15 K, m1 = 0.448	1004.43	62.6
298.15 K, m1 = 0.5037	1005.19	61.6
303.15 K, m1 = 0.0113	996.54	71
303.15 K, m1 = 0.0172	996.62	70.8
303.15 K, m1 = 0.0279	996.78	70.5
303.15 K, m1 = 0.0446	996.99	70.1
303.15 K, m1 = 0.1119	997.84	68.8
303.15 K, m1 = 0.1673	998.61	67.6
303.15 K, m1 = 0.2244	999.46	66.3
303.15 K, m1 = 0.2808	1000.3	65.1
303.15 K, m1 = 0.3352	1001.12	64
303.15 K, m1 = 0.3925	1001.97	62.9
303.15 K, m1 = 0.448	1002.83	61.8
303.15 K, m1 = 0.5037	1003.47	60.9
308.15 K, m1 = 0.0113	994.86	70.2
308.15 K, m1 = 0.0172	994.92	70
308.15 K, m1 = 0.0279	995.09	69.7
308.15 K, m1 = 0.0446	995.28	69.3
308.15 K, m1 = 0.1119	996.14	68.1
308.15 K, m1 = 0.1673	996.89	66.8
308.15 K, m1 = 0.2244	997.74	65.4
308.15 K, m1 = 0.2808	998.56	64.4
308.15 K, m1 = 0.3352	999.31	63.3
308.15 K, m1 = 0.3925	1000.19	62.2
308.15 K, m1 = 0.448	1000.95	61.2
308.15 K, m1 = 0.5037	1001.66	60.2
313.15 K, m1 = 0.0113	992.97	69.3
313.15 K, m1 = 0.0172	993.03	69.1
313.15 K, m1 = 0.0279	993.19	68.8
313.15 K, m1 = 0.0446	993.36	68.5
313.15 K, m1 = 0.1119	994.21	67.1
313.15 K, m1 = 0.1673	994.99	65.9
313.15 K, m1 = 0.2244	995.82	64.7
313.15 K, m1 = 0.2808	996.66	63.6
313.15 K, m1 = 0.3352	997.38	62.4
313.15 K, m1 = 0.3925	998.21	61.4
313.15 K, m1 = 0.448	998.97	60.4
313.15 K, m1 = 0.5037	999.65	59.5
318.15 K, m1 = 0.0113	990.93	68.5
318.15 K, m1 = 0.0172	991.01	68.4
318.15 K, m1 = 0.0279	991.15	68
318.15 K, m1 = 0.0446	991.33	67.7
318.15 K, m1 = 0.1119	992.2	66.4
318.15 K, m1 = 0.1673	992.92	65.2
318.15 K, m1 = 0.2244	993.77	64.1
318.15 K, m1 = 0.2808	994.56	63
318.15 K, m1 = 0.3352	995.34	61.9
318.15 K, m1 = 0.3925	996.12	60.9
318.15 K, m1 = 0.448	996.87	59.8
318.15 K, m1 = 0.5037	997.59	58.9

Reference: the NIST ThermoML archive (doi:10.1016/j.jct.2018.07.012)
